Values after ≈ are worked out from the molar mass of the structure shown. Active and inactive are the calls of the source. The rule behind the calls is not given here.
Columns and labels:
Nakaseomyces glabratus [1] = assay: Synergistic antifungal activity against fluconazole-resistant Candida glabrata 0161 assessed as fungal growth inhibition incubated for 48 hrs in presence of fluconazole by time-growth curve assay; type: functional, organism-based
Nakaseomyces glabratus [2] = assay: Antifungal activity against FLC-resistant Candida glabrata 0161 infected in cyclophosphamide immunosuppressed ICR mouse model assessed as inhibition of fungal growth in kidney at 5 mg/kg,ip administrated for 5 days; type: functional, organism-based; conditions: time 5.0 day
Nakaseomyces glabratus [3] = assay: Antifungal activity against fluconazole-resistant Candida glabrata 0161 assessed as fractional inhibitory concentration incubated for 48 hrs in presence of fluconazole by microplate reader assay; type: functional
Candida parapsilosis = assay: Antifungal activity against Candida parapsilosis 20090 assessed as fungal growth inhibition incubated for 48 hrs by microplate reader assay; type: functional; conditions: Lodderomyces parapsilosis
[4] = Half life in ICR mouse at 2 mg/kg,iv measured upto 24 hrs by LC-MS/MS analysis; type: ADME, organism-based; conditions: in vivo
Nakaseomyces glabratus [5] = assay: Synergistic antifungal activity against fluconazole-resistant Candida glabrata 0161 assessed as inhibition of Rhodamine 6G efflux at 1 to 8 ug/ml incubated for 25 hrs in presence of fluconazole by Rhodamine 6G staining based fluorescence assay; type: functional, organism-based; conditions: dose 1-8 µg/ml
Nakaseomyces glabratus [6] = assay: Antifungal activity against fluconazole-resistant Candida glabrata 0161 assessed as inhibition of fungal biofilm formation at 32 ug/ml incubated for 24 hrs by XXT reduction menadione assay; type: functional
[7] = AUC (0-t) in ICR mouse at 10 mg/kg,po measured upto 24 hrs by LC-MS/MS analysis; type: ADME, organism-based; set-up: time < 24 hrs, dose 10 mg/kg, route po; conditions: in vivo
[8] = AUC (0-infinity) in ICR mouse at 10 mg/kg,po measured upto 24 hrs by LC-MS/MS analysis; type: ADME, organism-based; set-up: time < 24 hrs, dose 10 mg/kg, route po; conditions: in vivo
Nakaseomyces glabratus [9] = assay: Antifungal activity against fluconazole-resistant Candida glabrata 0161 assessed as fungal growth inhibition at 4 ug/ml incubated for 48 hrs by time-growth curve assay; type: functional, organism-based; conditions: dose 4.0 µg/ml
Nakaseomyces glabratus [10] = assay: Synergistic antifungal activity against fluconazole-resistant Candida glabrata 0161 assessed as downregulation of CDR2 gene expression at 4 ug/ml in presence of fluconazole by RT-PCR analysis; type: functional, organism-based; conditions: dose 4.0 µg/ml
Nakaseomyces glabratus [11] = assay: Synergistic antifungal activity against fluconazole-resistant Candida glabrata 0161 assessed as inhibition of fungal mature biofilm formation at 1 to 64 ug/ml incubated for 24 hrs in presence of fluconazole by XXT reduction menadione assay; type: functional, organism-based; conditions: dose 1-64 µg/ml
[12] = Cytotoxicity against human HUVEC cells incubated for 48 hrs by CCK-8 assay; type: toxicity, cell-based
Nannizzia gypsea = assay: Antifungal activity against Microsporum gypseum assessed as fungal growth inhibition incubated for 48 hrs by microplate reader assay; type: functional
[13] = Half life in ICR mouse at 10 mg/kg,po measured upto 24 hrs by LC-MS/MS analysis; type: ADME, organism-based; conditions: in vivo
Nakaseomyces glabratus [14] = assay: Synergistic antifungal activity against fluconazole-resistant Candida glabrata 0161 assessed as inhibition of fungal biofilm formation at 32 ug/ml incubated for 24 hrs in presence of fluconazole by XXT reduction menadione assay; type: functional
Nakaseomyces glabratus [15] = assay: Antifungal activity against FLC-resistant Candida glabrata 0161 infected in cyclophosphamide immunosuppressed ICR mouse model assessed as pathological change in kidney at 5 mg/kg,ip administrated for 5 days by Hematoxylin and eosin staining based analysis; type: functional, organism-based; conditions: time 5.0 day
Nakaseomyces glabratus [16] = assay: Antifungal activity against fluconazole-resistant Candida glabrata 0161 assessed as inhibition of fungal growth at 2 to 16 ug/ml incubated for 48 hrs by Spot plating assay; type: functional, organism-based; conditions: dose 2-16 µg/ml
[17] = Oral bioavailability in ICR mouse at 10 mg/kg measured upto 24 hrs by LC-MS/MS analysis; type: ADME, organism-based; conditions: in vivo
Nakaseomyces glabratus [18] = assay: Synergistic antifungal activity against fluconazole-resistant Candida glabrata 0161 assessed as downregulation of ERG11 gene expression at 4 ug/ml in presence of fluconazole by RT-PCR analysis; type: functional, organism-based; conditions: dose 4.0 µg/ml
[19] = Volume of distribution at steady state in ICR mouse at 2 mg/kg,iv measured upto 24 hrs by LC-MS/MS analysis; type: ADME, organism-based; conditions: in vivo, read-out: Vdss
Nakaseomyces glabratus [20] = assay: Antifungal activity against FLC-resistant Candida glabrata 0161 infected in cyclophosphamide immunosuppressed ICR mouse model assessed as inhibition of fungal growth in kidney at 40 mg/kg,ip administrated for 5 days; type: functional, organism-based; conditions: time 5.0 day
[Candida] auris = Antifungal activity against Candida auris 15448 assessed as fungal growth inhibition incubated for 48 hrs by microplate reader assay; type: functional; conditions: Candidozyma auris
Nakaseomyces glabratus [21] = assay: Synergistic antifungal activity against fluconazole-resistant Candida glabrata 0161 assessed as inhibition of fungal growth at 2 to 16 ug/ml incubated for 48 hrs in presence of fluconazole by Spot plating assay; type: functional, organism-based; conditions: dose 2-16 µg/ml
Nakaseomyces glabratus [22] = assay: Antifungal activity against fluconazole-resistant Candida glabrata 9256 assessed as fungal growth inhibition incubated for 48 hrs by microplate reader assay; type: functional
Candida albicans = assay: Antifungal activity against Candida albicans assessed as fungal growth inhibition incubated for 48 hrs by microplate reader assay; type: functional
Nakaseomyces glabratus [23] = assay: Antifungal activity against fluconazole-resistant Candida glabrata 0161 assessed as fluconazole fractional inhibitory concentration incubated for 48 hrs in presence of fluconazole by microplate reader assay; type: functional
Nakaseomyces glabratus [24] = assay: Synergistic antifungal activity against FLC-resistant Candida glabrata 0161 infected in cyclophosphamide immunosuppressed ICR mouse model assessed as reduction in kidney fungal infection at 5 mg/kg,ip administrated for 5 days in presence of fluconazole by Hematoxylin and eosin staining based analysis; type: functional, organism-based; conditions: time 5.0 day
[25] = Aqueous solubility of compound; type: physicochemical
Nakaseomyces glabratus [26] = assay: Synergistic antifungal activity against fluconazole-resistant Candida glabrata 0161 assessed as downregulation of PDR1 gene expression at 4 ug/ml in presence of fluconazole by RT-PCR analysis; type: functional, organism-based; conditions: dose 4.0 µg/ml
Nakaseomyces glabratus [27] = assay: Synergistic antifungal activity against fluconazole-resistant Candida glabrata 0161 assessed as downregulation of CDR1 gene expression at 4 ug/ml in presence of fluconazole by RT-PCR analysis; type: functional, organism-based; conditions: dose 4.0 µg/ml
[28] = AUC (0-t) in ICR mouse at 2 mg/kg,iv measured upto 24 hrs by LC-MS/MS analysis; type: ADME, organism-based; set-up: time < 24 hrs, dose 2 mg/kg, route iv; conditions: in vivo
Nakaseomyces glabratus [29] = assay: Antifungal activity against fluconazole-resistant Candida glabrata 0161 assessed as increase in Nile red accumulation at 50 uM incubated for 30 mins by nile red staining based confocal microscopic analysis; type: functional, organism-based
[30] = AUC (0-infinity) in ICR mouse at 2 mg/kg,iv measured upto 24 hrs by LC-MS/MS analysis; type: ADME, organism-based; set-up: dose 2 mg/kg, time < 24 hrs, route iv; conditions: in vivo
[31] = Tmax in ICR mouse at 2 mg/kg,iv measured upto 24 hrs by LC-MS/MS analysis; type: ADME, organism-based; conditions: in vivo
Nakaseomyces glabratus [32] = assay: Antifungal activity against fluconazole-resistant Candida glabrata 0161 assessed as fungal growth inhibition incubated for 48 hrs by microplate reader assay; type: functional
Nakaseomyces glabratus [33] = assay: Antifungal activity against fluconazole-resistant Candida glabrata 0161 assessed as inhibition of fungal mature biofilm formation at 0.25 to 64 ug/ml incubated for 24 hrs by XXT reduction menadione assay; type: functional, organism-based; conditions: dose 0.25-64 µg/ml
[34] = Clearance in ICR mouse at 2 mg/kg,iv measured upto 24 hrs by LC-MS/MS analysis; type: ADME, organism-based; conditions: in vivo
Nakaseomyces glabratus [35] = assay: Synergistic antifungal activity against fluconazole-resistant Candida glabrata 0161 assessed as fractional inhibitory concentration index incubated for 48 hrs in presence of fluconazole by checkerboard microdilution method; type: functional

Q: For `Nc1cc(=O)n(C(=S)Nc2ccc3c(c2)CCC3)[nH]1`, which Activity (Nakaseomyces glabratus [1]) is on record?
A: The Activity was “Dose-Dependent Effect”.

Q: And the Activity (Nakaseomyces glabratus [2])?
A: Its Activity is “Active”.

Q: What about the FIC (Nakaseomyces glabratus [3]) of the same molecule?
A: The FIC was 0.063 µg/mL.

Q: What about the MIC (Candida parapsilosis) of the same molecule?
A: The MIC was 4 µg/mL (≈ 14.6 µM).

Q: What about the half-life [4] of the same molecule?
A: Its half-life is 51.6 min.

Q: What about the Activity (Nakaseomyces glabratus [5]) of the same molecule?
A: The Activity was “Active”.

Q: What about the inhibition at 32 µg/mL (Nakaseomyces glabratus [6]) of the same molecule?
A: The inhibition at 32 µg/mL was 40%.

Q: What about the AUC(0-t) at 24 h [7] of the same molecule?
A: Its AUC(0-t) at 24 h is 389 ng·h/mL.

Q: And the AUC(0-inf) [8]?
A: Its AUC(0-inf) is 390 ng·h/mL.

Q: And the Activity (Nakaseomyces glabratus [9])?
A: The Activity was “Active”.

Q: What about the Activity (Nakaseomyces glabratus [10]) of the same molecule?
A: The Activity was “Active”.

Q: What about the inhibition (Nakaseomyces glabratus [11]) of the same molecule?
A: Its inhibition is “Active”.

Q: What about the IC50 at 48 h [12] of the same molecule?
A: Its IC50 at 48 h is over 83 µM.

Q: What about the MIC (Nannizzia gypsea) of the same molecule?
A: The MIC was 1 µg/mL (≈ 3.64 µM).

Q: What about the half-life [13] of the same molecule?
A: Its half-life is 36 min.

Q: And the inhibition at 32 µg/mL (Nakaseomyces glabratus [14])?
A: Its inhibition at 32 µg/mL is 73%.

Q: What about the Activity (Nakaseomyces glabratus [15]) of the same molecule?
A: Its Activity is “Active”.

Q: And the Activity (Nakaseomyces glabratus [16])?
A: The Activity was “Active”.

Q: And the bioavailability [17]?
A: Its bioavailability is 15.9%.

Q: And the Activity (Nakaseomyces glabratus [18])?
A: Its Activity is “Active”.

Q: And the Vd [19]?
A: Its Vd is 1.04 L/kg.

Q: And the Activity (Nakaseomyces glabratus [20])?
A: Its Activity is “Active”.

Q: And the MIC ([Candida] auris)?
A: The MIC was 2 µg/mL (≈ 7.29 µM).

Q: And the Activity (Nakaseomyces glabratus [21])?
A: The Activity was “Active”.

Q: What about the MIC (Nakaseomyces glabratus [22]) of the same molecule?
A: Its MIC is 0.25 µg/mL (≈ 0.911 µM).

Q: And the MIC (Candida albicans)?
A: Its MIC is 4 µg/mL (≈ 14.6 µM).

Q: What about the “fluconazole MIC in combination” value (Nakaseomyces glabratus [23]) of the same molecule?
A: Its value is 1 µg/mL.

Q: What about the Activity (Nakaseomyces glabratus [24]) of the same molecule?
A: Its Activity is “Active”.

Q: What about the solubility [25] of the same molecule?
A: The solubility was 22.1 µg/mL (≈ 80.4 µM).

Q: And the Activity (Nakaseomyces glabratus [26])?
A: The Activity was “Active”.

Q: What about the Activity (Nakaseomyces glabratus [27]) of the same molecule?
A: The Activity was “Active”.

Q: What about the AUC(0-t) at 24 h [28] of the same molecule?
A: Its AUC(0-t) at 24 h is 489 ng·h/mL.

Q: What about the Activity (Nakaseomyces glabratus [29]) of the same molecule?
A: The Activity was “Active”.

Q: What about the AUC(0-inf) [30] of the same molecule?
A: The AUC(0-inf) was 491 ng·h/mL.

Q: And the Tmax [31]?
A: Its Tmax is 4.8 min.

Q: What about the MIC (Nakaseomyces glabratus [32]) of the same molecule?
A: Its MIC is 0.25 µg/mL (≈ 0.911 µM).

Q: And the inhibition (Nakaseomyces glabratus [33])?
A: The inhibition was “inactive”.

Q: What about the clearance [34] of the same molecule?
A: Its clearance is 68.6 mL/min/kg.

Q: What about the “fractional inhibitory concentration index (FICI)” value (Nakaseomyces glabratus [35]) of the same molecule?
A: Its value is 0.28.

— ChEMBL document CHEMBL5321270, “Discovery of Pyrazolone Carbothioamide Derivatives as Inhibitors of the Pdr1-KIX Interaction for Combinational Treatment of Azole-Resistant Candidiasis” (J Med Chem, 2023)
